Experimental data as given in US20040106150A1, “Inverse labeling method for the rapid identification of marker/target proteins” (priority 2000, published 2004).
“Also recorded” adds a separate entry of the source.

Key:
HCT116 cells = experiment: Inverse labeling-MS phosphorylation analysis of HCT116 cell lysate treated with Raf inhibitor; assay type: cell-based, Human; conditions: for Change (treated/control) / Change (treated/control), % down: HCT116 cells, 20 μM, 1.5 hours vs DMSO control
Experimental: Human colorectal cell line HCT116 cells are grown in 6-well plates. Prior to harvesting, the cells are treated with 20 μM of the Raf inhibitor BPMI and DMSO control for 1.5 hours, respectively. Cells are then rinsed with PBS, and lysed for 5 mintues at 4° C. in Doriano lysis buffer with 100 μg/mL Perfabloc/2 μg/mL aprotinin/2 μg/mL leupeptin/1 mM NaVO4/10 mM NaF. The supernatant of the lysates are collected after centrifugation at 3,000 rpm for 5 minutes. The protein concentration is determined using Bio-Rad reagent, and the lysates are frozen at −80° C. prior to further processing and analysis.
One μL of RNase A (20 mg/mL, Sigma, St Louis, Mo.) and 1 μL of RNase T1 (10 units/mL, Invitrogen, Carlsbad, Calif.) are added to each 1 mL of lysates (total 3 mg of HCT116-DMSO control and 3 mg of HCT116-BPMI, respectively), and incubated at 37° C. for half an hour to degrade RNAs. Proteins are denatured using 6 M guanidine HCl, followed by reduction with 20 mM 1,4-dithio-DL-threitol (DTT) at 58° C. for 40 minutes and alkylation with 40 mM iodoacetamide at room temperature for 30 minutes in the dark. Each protein solution is transferred to a Slide-A-Lyzer ( 10,000 MW cutoff, Pierce, Rockford, Ill.) dialysis cassette and dialyzed against 2 to 0 M urea/50 mM ammonium bicarbonate to remove small molecule impurities and buffer exchange to 50 mM ammonium bicarbonate. Proteolysis is carried out using modified, sequencing grade trypsin (Promega, Madison, Wis.) at a 1:200 trypsin-to-protein ratio (wt:wt) in 50 mM ammonium bicarbonate at 37° C. overnight.
The peptide digests are filtered through Centricon Filters (10,000 MW cutoff, Millipore, Bedford, Mass.) to remove large molecule impurities including detergents. Flow-through (peptides) is collected. Solvent and ammonium bicarbonate are subsequently removed by SpeedVac drying.
d0- or d3-methanolic HCl (2 M) (methyl esterification reagent) is prepared by adding 160 μL of acetyl chloride to 1 mL of anhydrous d0-methyl alcohol or d3-methyl d-alcohol drop wise while stirring. After 10 minutes, 1 mL of the methyl esterification reagent is added to 1.5 mg of lyophilized peptide mixture. The reaction is performed in parallel to two identical aliquots for every sample, one using d0-reagent and one using d3-reagent, respectively. The reaction is allowed to proceed at room temperature for 30 minutes. The excess reagents are removed by SpeedVac drying. Subsequently the peptide mixtures are reconstituted with water. The inverse labeling is achieved by mixing d0-control with d3-treated (BPMI) and d3-control with d0-treated.
Enrichment of phosphopeptides is performed on a 2.1×30 mm IMAC column (POROS 20 MC, Applied Biosystems, Foster City, Calif.). Briefly, the column is washed with water, 100 mM EDTA in 1 M NaCl, followed by water and 1% acetic acid. The column is then activated with 100 mM FeCl3. The SpeedVac dried, 1 mg of the inversely-labeled methyl esterified peptide mixture (500 μg each form of d0 and d3) is dissolved in 1% acetic acid in 50% acetonitrile/water, and loaded onto iron-activated IMAC column. The unbound peptides are removed by washing with 1% acetic acid in 50% acetonitrile/water ([…]). The bound phosphopeptides are eluted with 2% ammonium hydroxide in 50% acetonitrile/water. Acetic acid is added to neutralize the eluent prior to SpeedVac drying. The phosphopeptide mixture is reconstituted with 0.1% formic acid and analyzed using capillary LC/MS, as described below.
An Ultimate capillary/nano HPLC system (LC Packings, San Francisco, Calif.) with a Swichos micro column-switching module (LC Packings, San Francisco, Calif.) is used for analysis. Separation is carried out on a 0.18×50 mm capillary column, packed with 3 μm C18 stationary phase of 300-Å pore size (PepMap, LC Packings, San Francisco, Calif.), operating at a flow rate of 2 μL/min. Mobile phase A consists of 0.1% (v/v) formic acid in water and mobile phase B of 0. 1% (v/v) formic acid in acetonitrile. […]

tumor tissue DU145 = experiment: Inverse labeling-MS phosphorylation analysis of tissue lysate of mouse tumor xenograft (tumor tissue DU145), in vivo study; design: Change (treated/control), % down: concentration or dose not given beside the values; conditions: for Change (treated/control) / Change (treated/control), % down: tumor tissue, 1 hour treatment
Experimental: The phosphoproteome mapping method is further tested/applied to an in vivo study of the Raf inhibitor, BPMI (1-hour treatment) in the analysis of tissue lysate of mouse tumor xenograft. […] Although the usual 1 mg of lysate is processed and IMAC enriched, considering the overwhelming blood protein contamination, the actual amount of tissue lysate proteins in the sample is a lot less. For that reason, only 0.05% β-casein is spiked into each tissue lysate sample as internal standard. The methyl esterification/IMAC procedure is successful in removing the blood contamination from the tissue samples. As shown in FIG. 15 (B), inverse labeling-MS analysis after IMAC enrichment clearly detects the down-regulation of Ser^25 phosphorylation of oncoprotein 18, confirming the finding of the cellular studies. Additional changes in phosphorylation are also detected which includes oncogene EMS1, mouse fetuin and Epithelial-cadherin (see Table 3).

[1] = phosphopeptide ASGQAFELILpSPR, Oncoprotein 18
[2] = phosphopeptide IEpSPKLER, Heat-shock 110 kD protein
[3] = phosphopeptide LPpSSPVYEDAASFK, Oncogene EMS1
[4] = phosphopeptide RLpSPSApSPPR, Ser/Arg-related nuclear matrix protein
[5] = phosphopeptide SKESVPEFPLpSPPK, Oncoprotein 18
[6] = phosphopeptide pTQTPPVpSPAPQPTEER, Oncogene EMS1
[7] = phosphopeptide MRDWVIPPIpSCPENEK, Epithelial-cadherin (mouse/human)
[8] = phosphopeptide VoxMHTQCHSTPDpSAEDVR, Mouse fetuin

SMILES: CC(C)(C)c1ccc(Nc2ncc(Cc3ccncc3)c3ccccc23)cc1 [BPMI, 1-(4-t-butylanilino)-4-[(pyridin-4-yl)-methyl]-isoquinoline]
- OP18 (oncoprotein 18) Ser25 phosphorylation (HCT116 cells; HCT116 cell lysate, treated vs control): significantly down-regulated; also recorded: Down-regulation
- Change (treated/control) (HCT116 cells; [1]): 0.4
- Change (treated/control), % down (HCT116 cells; [1]): 60%
- Change (treated/control) (HCT116 cells; [2]): 0.7
- Change (treated/control), % down (HCT116 cells; [2]): 30%
- Change (treated/control) (HCT116 cells; [3]): 0.8
- Change (treated/control), % down (HCT116 cells; [3]): 20%
- Change (treated/control) (HCT116 cells; [4]): 0.7
- Change (treated/control), % down (HCT116 cells; [4]): 30%
- Change (treated/control) (HCT116 cells; [5]): 0.6
- Change (treated/control), % down (HCT116 cells; [5]): 40%
- Change (treated/control) (HCT116 cells; [6]): 0.8
- Change (treated/control), % down (HCT116 cells; [6]): 20%
- Ser25 phosphorylation of oncoprotein 18 (OP18) (tumor tissue DU145; in vivo, tumor tissue DU145, 1-hour treatment): down-regulation
- Change (treated/control) (tumor tissue DU145; [1]): 0.4
- Change (treated/control), % down (tumor tissue DU145; [1]): 60%
- Change (treated/control) (tumor tissue DU145; [3]): 0.7
- Change (treated/control), % down (tumor tissue DU145; [3]): 30%
- Change (treated/control) (tumor tissue DU145; [7]): 0.5
- Change (treated/control), % down (tumor tissue DU145; [7]): 50%
- Change (treated/control) (tumor tissue DU145; [5]): 0.8
- Change (treated/control), % down (tumor tissue DU145; [5]): 20%
- Change (treated/control) (tumor tissue DU145; [8]): 0.6
- Change (treated/control), % down (tumor tissue DU145; [8]): 40%
- Change (treated/control) (tumor tissue DU145; [6]): 0.6
- Change (treated/control), % down (tumor tissue DU145; [6]): 40%
